The values below come from patent US12648571B2, “Compositions including antimicrobial polymer-peptide conjugates and uses thereof” (University of Puerto Rico, priority 2020, dated 2026).

The nature of data set [1]: Dynamic Light Scattering (DLS) of peptides in solution. Type of data set: physicochemical. The settings on record: 1.0 mg/mL in DMSO/np water 20% v/v; for Polydispersity Index (PDI): individual peak method. The protocol:
To determine the stability of the peptide in solution, DLS was conducted for both peptides (MH5C and MH5C-Cys).
AMPs were dissolved in DMSO and nanopure water (DMSO/np water mixture; 20% v/v) with the final concentration at 1.0 mg/mL. First the samples were ultra-centrifuged (29,100 rpm, 1 hour at 20° C.) and later the size average of these biomolecules was studied in solution using a Malvern Zetasizer Nano instrument (4 mW 632.8 nm laser). The individual peak method was used to determine the Polydispersity Index (PdI).

A short description of data set [2]: Circular Dichroism (CD) spectroscopy, secondary structure (K2D3). Type of data set: physicochemical. The settings on record: 90 μM, TFE/np water 50% v/v, 20° C. Here is the method: Circular Dichroism spectra were recorded on a Jasco J-1500 CD Spectrometer (Jasco, Inc., Easton, MD). Both peptides (MH5C, MH5C-Cys) were dissolved according to the protocol published by Dennison et al. (2015) with 2,2,2-Trifluoroethanol and np water (TFE/np water mixture; 50% v/v) as co-solvent for this peptide.^26 The final concentration was set to 90 μM and the samples were ultra-centrifuged (29,100 rpm) for 1 hour at 20° C. Subsequently, 400 μL of the supernatant of each peptide was added to a rectangular quartz cell with 1 mm path length to evaluate secondary structures. The wavelength ranged from 250-190 nm and scanning speed was 50 nm/min at 20° C. The data obtained were triplicated and then averaged for each sample. In addition, the thermodynamics and unfolding of peptides was studied with this equipment. This technique was used to observe the secondary structure at wavelength complete spectra as a function of temperature.^27 The temperature range from 20° C. to 90° C. was used.
For the secondary structure estimation, the K2D3 method was utilized as described elsewhere.^40 After obtaining the data, a predictive method that utilizes the information from the database Protein Data Bank (PDB) was employed. With this information, a theoretical prediction of CD, known as DichroCalc was obtained.^41 Then, the method K2D3 was utilized, which can predict secondary structures of peptides and proteins in recorded wavelengths between 200 nm to 240 nm in a non-redundant form. The results of these calculations are the predicted percentages for alpha-helix and beta-strand content.^40 The following equation was employed for this prediction:^42

For data set [3], the system named is P. aeruginosa (ATCC 27853). Type of data set: cell-based, Pseudomonas aeruginosa. The settings on record: for Minimum Inhibition Concentration (MIC): 24 hours, 1.0×10^8 CFU/mL; for kind of antibacterial effect (growth curves): peptides: after 12 hours of growth; for bacterial growth (growth curves): up to 24 hours, 37° C. The source says:
(§1) To determine the antimicrobial activity of the peptides against the pathogenic bacteria P. aeruginosa (ATCC 27853)22 and E. coli (ATCC 25922)23, the following materials were used: Costar 96-well plates Flat Bottom (Sterile Low Evaporation Lid, Corning, USA.), Calgary Biofilm Device (Innovotech Inc.), Glycerol 100% purity. The nutrient agar and broth used were BBL TSA II Trypticase Soy Agar (TSA) and BBL Trypticase Soy Broth (TSB) and were purchased from Becton, Dickinson and Company (BD).
(§2) For these assays, bacteria of interest were thawed, and serial cultured to reach optimal metabolic activity after being defrosted. Optical Density (O.D.) measured with a Genesys 10S UV-VIS Spectrophotometer (O.D.600 nm) was utilized as a measure of bacterial concentration, 1.0×10^8 CFU/mL, as standardized and approved by the Clinical and Laboratory Standards Institute (CLSI).^28 The final concentration of the solvent (vehicle control) was DMSO 10%.
(§3) To create growth curves of the bacteria with and without peptides and to determine the lowest concentration in which these antimicrobial peptides present inhibition of bacterial growth, Minimum Inhibition Concentration (MIC) testing was carried out. After thawing and incubating at 37° C. for 24 hours, and after achieving target O.D., the bacteria were placed on the 96-well plate with lid together with the peptides in various concentrations. Finally, the 96-well plate was taken to the Synergy H1TM Hybrid Multi-Mode Microplate Reader to observe and study the antibacterial effect of the peptides at 37° C. during different time points (0.5 h, 5 h, 12 h, 18 h and 24 h). This process that was used in the same in the evaluation of growth using the MH5C-Cys.

A short description of data set [4]: Zeta potential of peptides. The settings on record: sample pH 4.5 (MH5C), 5.9 (MH5C-Cys). Type of data set: physicochemical. The protocol:
Likewise, zeta potential was conducted in order to determine the overall charge of the modified and unmodified peptide. The zeta potential is highly dependent on the pH as it directly affects the overall charge of the colloidal species. Therefore, it was of interest to know the isoelectric point of the peptides. Using ExPASy ProtParam tool (https://web.expasy.org/protparam/), the theoretical isoelectric points of MH5C and MH5C-Cys, were determined at 3.42 in both cases. In this study the pH of each sample, MH5C was 4.5 and 5.9 for the MH5C-Cys. This is an important condition for the stability of the formulation, as no precipitation will occur under the conditions of the experiment.^36 MH5C had positive zeta potential values (46.6±0.9) compared to the MH5C-Cys (−94±4).

The test system of a further data set is E. coli (ATCC 25922). Type of data set: cell-based, Escherichia coli. The note with it: for Minimum Inhibition Concentration (MIC): 24 hours, 1.0×10^8 CFU/mL; for kind of antibacterial effect (growth curves): peptides: after 12 hours of growth; for bacterial growth (growth curves): up to 24 hours, 37° C.
Excerpt: as §1, §2, §3

The test system of data set [5] is E. coli biofilm. Type of data set: cell-based, Escherichia coli. The note with it: for Minimum Biofilm Eradication Concentration (MBEC): 24 h challenge. Here is the method: (§4) The assay was conducted according to the MBEC protocol as supplied by the manufacturer. Inoculum of each bacterium was prepared in TSB (Tryptic Soy Broth) to a final density of 1.0×10^6. In each well of the 96 well plate, 150 of the inoculated media was transferred. Assay plates were placed in an incubator for 72 h to allow growth and comparison of biofilms was performed for each bacteria strain. After 72 h, the PEG lid of the MBEC assay was transferred to a ‘challenge’ plate. Essentially, serial dilutions of each conjugated (4 kDa and 7 kDa), antimicrobial peptide, and PEG polymers were prepared in TSB to a final volume in the well plates of 200 μL (control and conjugates at 90 μM, 300 μM, and 500 μM). After exposure of the biofilm to the antimicrobial challenge for 24 h, the PEG lid was removed from the challenge plate, and the optical density measurements for each plate were recorded at 650 nm. Clear wells were taken as evidence of biofilm eradication, and MBEC values were assigned as the lowest concentration at which no growth was observed after 24 h of incubation.^31-32

In data set [6] the test system is E. coli biofilm. The data set is described as follows: MBIC assay (Calgary Biofilm Device). Type of data set: cell-based, Escherichia coli. The note with it: 90 μM and 300 μM. Here is the method: (§5) MBIC (Minimum Biofilm Inhibitory Concentration) was determined by the adherence assay using the Calgary Biofilm Device (Innovotech Inc.). In this assay, the bacteria and compounds (MH5C-Cys and both PEG conjugates) were placed together in the assay plate for 72 h to allow growth. Afterwards, CFU (Colony Forming Unit) and optical density measurements for each well were recorded at 650 nm and clear wells and growth inhibition curves were taken as evidence of biofilm inhibition.

Data set [7] concerns P. aeruginosa biofilm. Put plainly: MBIC assay (Calgary Biofilm Device). Type of data set: cell-based, Pseudomonas aeruginosa. The settings on record: 90 μM and 300 μM. The protocol:
as §5

The subject of data set [8] is P. aeruginosa biofilm. Type of data set: cell-based, Pseudomonas aeruginosa. The note with it: for Minimum Biofilm Eradication Concentration (MBEC): 24 h challenge. The protocol: as §4

No end group written: not given here.

For ILGPVLGLVSDTLDDVLGIL-OH [MH5C], in [1], the “average apparent hydrodynamic diameter” value was 0.72 ± 0.11 nm·days and the “Polydispersity Index (PDI)” value turned out to be 0.03. Besides, in data set [2], the α helix structure is listed as 95.22% and the β strand structure is given as 0.02%. Also, in data set [3], the “Minimum Inhibition Concentration (MIC)” value amounted to 90 µM, the “kind of antibacterial effect (growth curves)” value (from here on “kind of antibacterial effect”) is listed as “bacteriostatic effect” and the “bacterial growth (growth curves)” value is reported as “did not allow bacterial growth”. In data set [4], the zeta potential turned out to be 46.6±0.9. Further, in the data set with E. coli (ATCC 25922), the “Minimum Inhibition Concentration (MIC)” value worked out at 90 µM, the “kind of antibacterial effect” value was “bacteriostatic effect” and the “bacterial growth (growth curves)” value is on record as “did not allow bacterial growth”.
On to ILGPVLGLVSDTLDDVLGILC-OH [MH5C-Cys], for which, in data set [1], the “average apparent hydrodynamic diameter” value worked out at 0.52 ± 0.44 nm·days and the “Polydispersity Index (PDI)” value turned out to be 0.01. Also, in the data set on E. coli biofilm [5], the “time during which bacterial growth was not allowed (MBEC assay)” value was 8 to 10 h and the “Minimum Biofilm Eradication Concentration (MBEC)” value was 500 µM. For the same substance, in [2], the α helix structure is reported as 95.36% and the β strand structure is 0.02%. Besides, the “inhibition of biofilm formation (MBIC assay, CFU)” value with E. coli biofilm [6] is “does not possess a significant inhibition”. Further, the “inhibition of biofilm formation (MBIC assay, CFU)” value in the data set on P. aeruginosa biofilm [7] is reported as “does not possess a significant inhibition”. In addition, in data set [3], the “Minimum Inhibition Concentration (MIC)” value was 90 µM, the “kind of antibacterial effect” value is given as “bacteriostatic effect” and the “bacterial growth (growth curves)” value is reported as “did not allow bacterial growth”. In addition, the zeta potential in [4] was −94±4. In addition, in the data set on E. coli (ATCC 25922), the “Minimum Inhibition Concentration (MIC)” value came to 90 µM, the “kind of antibacterial effect” value is on record as “bacteriostatic effect” and the “bacterial growth (growth curves)” value is given as “did not allow bacterial growth”. Further, in the data set on P. aeruginosa biofilm [8], the “time during which bacterial growth was not allowed (MBEC assay)” value was 8 to 10 h and the “Minimum Biofilm Eradication Concentration (MBEC)” value is 500 µM.
KRWRIRVRVIRKC [Tet-20, KRWRIRVRVIRKC]: the “kind of effect in MBEC assay” value in the data set on E. coli biofilm [5] (90 μM and 300 μM, 24 h) is given as “bactericidal effect”; in the data set on P. aeruginosa biofilm [8] (90 μM, 180 μM and 300 μM, 24 h), “bactericidal effect”. Further, the “Minimum Biofilm Eradication Concentration (MBEC)” value in the data set on E. coli biofilm [5] and in the data set on P. aeruginosa biofilm [8] was 300 µM each time. Moreover, the “Minimum Inhibition Concentration (MIC)” value in data set [3] was found to be 40 µM; in the data set on E. coli (ATCC 25922) it was 15 µM.
